Laboratory results from PMC7754465, “Multiparameter Kinetic Analysis for Covalent Fragment Optimization by Using Quantitative Irreversible Tethering (qIT)” (Chembiochem, 2020).
Entries after “also recorded” stand apart in the source; their conditions may differ.

Molecular target: T1, pCdk2(ES)/cyclin A holoenzyme (Homo sapiens, UniProt P24941, C177A/F80C)
T1 construct: GST (N, cleaved yes); made in house; host or cells: E. coli Tuner(DE3); Cdk2 phosphorylated in vitro with GST-CAK1 (S. cerevisiae)
Experiment: spectrophotometric coupled (LDH/PK) kinase assay after labelling and dialysis
Type: biochemical
Settings: treatment with 0.5 mM acrylamide, then dialysis to remove ligand
Text: Next we undertook biochemical validation of the electrophile sensitive approach using a spectrophotometric kinase assay. In this experiment the activity of Cdk2 is activated both by phosphorylation and interaction with cyclin A. The catalytic turnover of ATP is coupled to the oxidation of NADH by lactate dehydrogenase (LDH) and pyruvate kinase (PK), which is monitored by absorbance at 340 nm.
H. Intact-protein mass spectrometry
Protein-mass data were obtained on a Waters micromass LC-TOF mass spectrometer in positive ion mode using electrospray ionization. Samples were chromatographed using an Acquity UPLC protein BEH C4 column (2.1 mm × 50 mm, 2.7 µm) with a flow rate of 30 µL/min. The injection volume was 5 µL of protein solution (5 µM) in 30 mM ammonium bicarbonate buffer con-taining 0.5% formic acid and 20% MeOH. The gradient used was 100% mobile phase A (0.1% formic acid in water/MeOH (19:1)) ramping linearly to 90% mobile phase B (0.1% formic acid in MeOH) over 5 minutes. […]
4EK3) and the model was iteratively refined using Phenix.Refine[13] with manual modelling and adjustments carried out in COOT[14]. […] Electron density maps were calculated using FFT[17] and figures were prepared using PyMol (Schrö dinger). […]

With `C=CC(=O)Nc1ccc(-c2ncccn2)cc1` [S1] the “inhibition of kinase activity” value was “complete irreversible inhbition”.
For `C=CC(=O)N1CCCc2cc(C(=O)OC)ccc21` [compound 1], the “inhibition of kinase activity” value was “complete irreversible inhbition; also recorded: complete inhibition”.
